Patent publication US8461193B2, “Substituted pyrrolo-pyrazole derivatives active as kinase inhibitors” (Nerviano Medical Sciences S.R.L., priority 2005, dated 2013)
Where two headings read alike, the source gives them in different places.

Assays:
[1] = system: IGF1-induced S6 phosphorylation; experiment: Growth factor induced S6 ribosomal protein phosphorylation in primary human fibroblasts; type: cell-based; conditions: normal human dermal fibroblasts (NHDF), stimulated with 10 nM IGF-1; read-out: Inhibition of IGF1-induced S6 phosphorylation IC50
Protocol: Growth Factor Induced S6 Ribosomal Protein Phosphorylation in Primary Human Fibroblasts.
Phosphorylation of S6 ribosomal protein in response to growth factor stimulation of normal human dermal fibroblasts (NHDF) was used to assess compound potency in inhibiting IGF-1 induced signal transduction in cells, and selectivity towards EGF and PDGF stimulus. NHDF cells obtained from PromoCell (Heidelberg, Germany), were maintained at 37° C. in a humidified atmosphere with 5% CO2 in complete Fibroblast Growth Medium (PromoCell). For assay, NHDF were seeded in 384-well tissue culture plates (clear- and flat-bottomed black plates; Matrix Technologies Inc., Hudson, N.H., USA) at a density of 5000 cells/well in serum-free medium containing 0.1% bovine serum albumin (BSA) and incubated for 5 days. Starved cells were treated for 1 hour with desired doses of compounds and then stimulated for a further 2 hours with either 10 nM IGF-1 (Invitrogen Corp., CA, USA), 10 nM EGF (Gibco BRL, USA) or 1 nM PDGF-B/B (Roche Diagnostics GmbH, Germany). Cells were then fixed in PBS/3.7% paraformaldehyde for 20 minutes at room temperature, washed ×2 with PBS, and permeabilized with PBS/0.3% Triton X-100 for 15 minutes. Wells were then saturated with PBS/1% non-fat dry milk (Bio-Rad Laboratories, Hercules, Calif., USA) for 1 hour, and then probed for 1 hour at 37° C. with anti-phospho-S6 (Ser 235/236) antibody (Cell Signaling Technology, Beverly, Mass., USA, cat. #2211) at 1/200 dilution in PBS/1% milk/0.3% Tween 20. […] Fluorescence images in the DAPI and Cy5™ channels were automatically acquired, stored and analysed using a Cellomics ArrayScan™ IV instrument (Cellomics, Pittsburgh, USA); the Cellomics Cytotoxicity Algorithm was used to quantify cytoplasmic fluorescence associated with phospho-S6 (Cy5™ signal parameter: “Mean Lyso Mass-pH”) for each cell in 10 fields/well, and eventually expressed as a mean population value. […]

[2] = target: T1, IGF1R (Homo sapiens, UniProt P08069); experiment: Western blot analysis of receptor phosphorylation following stimulation with IGF-1 in MCF-7 human breast cancer cells; type: cell-based; design: endogenous in cells; host or cells: MCF-7 (ATCC# HTB-22); conditions: starved MCF-7 cells, increasing concentrations of compound prior to 10 nM IGF1
Protocol: Cell-Based Assays for Inhibitors of IGF-1R Kinase Activity Western Blot Analysis of Receptor Phosphorylation Following Stimulation with IGF-1 in MCF-7 Human Breast Cancer Cells
MCF-7 cells (ATCC# HTB-22) were seeded in 12-well tissue culture plates at 2×10^5 cells/well in E-MEM medium (MEM+Earle's BSS+2 mM glutamine+0.1 mM non-essential amino acids)+10% FCS, and incubated overnight at 37° C., 5% CO2, 100% relative humidity. Cells were then starved by replacing E-MEM+10% FCS with E-MEM+0.1% BSA, and incubating overnight. After this incubation, wells were treated with desired concentrations of compound for 1 hour at 37° C., and were then stimulated with 10 nM recombinant human IGF-1 (Invitrogen, Carlsbad, Calif., USA) for 10 minutes at 37° C. […] Cell lysates were cleared by centrifugation at 10,000×g for 5 minutes, and 10 microg/lane of cleared lysate protein were run on NuPAGE gels (NuPAGE 4-12% 10-lane Bis-Tris gels, Invitrogen) with MOPS running buffer, then transferred onto Hybond-ECL nitrocellulose filters (Amersham Biosciences, Little Chalfont, Buckinghamshire, UK) using Mini PROTEAN II chambers (Bio-Rad Laboratories, Hercules, Calif., USA). […] In either case, filters were then washed for 30 minutes with several changes of TBS+0.15% Tween 20, and incubated for 1 hour in washing buffer containing 1/5000 dilution of horseradish peroxidase conjugated anti-rabbit IgG (Amersham, product #NA934), then were washed again and developed using the ECL chemiluminescence system (Amersham) according to manufacturer's recommendations. Unless otherwise stated, reagents used were from Sigma-Aldrich, St. Louis, Mo., USA.
Target sequence in this assay (P08069 31-1367): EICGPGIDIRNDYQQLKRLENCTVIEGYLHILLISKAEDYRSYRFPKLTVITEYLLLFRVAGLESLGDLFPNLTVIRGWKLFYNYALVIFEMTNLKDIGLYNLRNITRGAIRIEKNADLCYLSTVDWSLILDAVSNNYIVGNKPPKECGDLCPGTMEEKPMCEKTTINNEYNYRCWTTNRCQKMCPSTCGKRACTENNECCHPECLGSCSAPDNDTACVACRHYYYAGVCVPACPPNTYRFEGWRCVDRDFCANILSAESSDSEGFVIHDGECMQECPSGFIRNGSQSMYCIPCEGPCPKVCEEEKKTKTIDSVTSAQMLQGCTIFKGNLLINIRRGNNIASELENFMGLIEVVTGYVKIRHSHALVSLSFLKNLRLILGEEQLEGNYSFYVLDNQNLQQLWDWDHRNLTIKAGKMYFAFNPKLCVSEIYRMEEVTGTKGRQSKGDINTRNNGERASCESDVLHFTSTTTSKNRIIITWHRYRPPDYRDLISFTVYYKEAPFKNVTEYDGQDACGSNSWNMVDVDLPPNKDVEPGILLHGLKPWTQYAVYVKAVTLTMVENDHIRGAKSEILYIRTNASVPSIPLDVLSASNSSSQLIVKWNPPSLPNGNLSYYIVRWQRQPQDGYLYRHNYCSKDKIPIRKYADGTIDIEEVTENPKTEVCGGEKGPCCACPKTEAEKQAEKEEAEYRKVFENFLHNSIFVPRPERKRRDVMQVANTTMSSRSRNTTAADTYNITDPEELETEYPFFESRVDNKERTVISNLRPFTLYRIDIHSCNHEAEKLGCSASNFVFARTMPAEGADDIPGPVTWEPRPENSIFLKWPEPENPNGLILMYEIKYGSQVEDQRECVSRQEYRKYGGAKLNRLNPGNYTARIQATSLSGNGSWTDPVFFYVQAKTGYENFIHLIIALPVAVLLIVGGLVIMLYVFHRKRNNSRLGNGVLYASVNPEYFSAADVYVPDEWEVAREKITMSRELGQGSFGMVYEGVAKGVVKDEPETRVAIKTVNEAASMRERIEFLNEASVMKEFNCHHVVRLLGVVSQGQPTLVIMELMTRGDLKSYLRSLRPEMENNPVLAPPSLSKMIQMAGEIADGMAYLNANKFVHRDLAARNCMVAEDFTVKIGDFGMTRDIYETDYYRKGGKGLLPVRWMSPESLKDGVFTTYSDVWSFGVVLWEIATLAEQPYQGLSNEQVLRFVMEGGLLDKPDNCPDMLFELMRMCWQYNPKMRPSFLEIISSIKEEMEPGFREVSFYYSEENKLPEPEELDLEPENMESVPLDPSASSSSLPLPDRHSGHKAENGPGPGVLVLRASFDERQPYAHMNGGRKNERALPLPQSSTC

[3] = target: T1, IGF1R; experiment: Biochemical assay for inhibitors of IGF-1R kinase activity (trans-phosphorylation assay, robotized Dowex assay); design: amino acid residues 960-1367 of precursor protein; made in house; host or cells: H5 insect cells (baculovirus; virus made in Sf21 cells)
Protocol: ID NO: 2). […] The inhibitory activity of putative kinase inhibitors and the potency of selected compounds were determined using a trans-phosphorylation assay.
Target sequence in this assay (P08069 960-1367): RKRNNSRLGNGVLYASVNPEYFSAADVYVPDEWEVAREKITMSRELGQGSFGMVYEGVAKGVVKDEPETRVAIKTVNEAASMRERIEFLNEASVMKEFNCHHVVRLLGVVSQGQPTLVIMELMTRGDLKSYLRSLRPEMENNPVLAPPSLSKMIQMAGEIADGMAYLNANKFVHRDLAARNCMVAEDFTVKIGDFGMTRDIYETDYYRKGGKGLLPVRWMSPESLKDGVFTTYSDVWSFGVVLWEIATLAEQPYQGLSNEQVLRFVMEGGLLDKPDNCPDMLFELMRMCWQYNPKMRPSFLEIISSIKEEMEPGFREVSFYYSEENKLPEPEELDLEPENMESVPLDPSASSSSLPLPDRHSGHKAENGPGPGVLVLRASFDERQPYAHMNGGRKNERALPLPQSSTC

[4] = 6 nM enzyme, 6 microM ATP, 10 microM peptide substrate, read-out: IGF1R IC50 (μM) Biochemical assay

SMILES	IC50 [1]	inhibition of IGF1-induced IGF1R auto-phosphorylation (pIGF1R band, FIG. 1) [2]	IC50 [3, 4]	IC50 [3]
CC(C)CNc1cc(N2CCN(C)CC2)ccc1C(=O)Nc1n[nH]c2c1CN(S(=O)(=O)c1cc(F)cc(F)c1)C2(C)C.Cl [Compound 90, N-[5-(3,5-Difluoro-benzenesulfonyl)-6,6-dimethyl-1,4,5,6-tetrahydro-pyrrolo[3,4-c]pyrazol-3-yl]-2-isobutylamino-4-(4-methyl-piperazin-1-yl)-benzamide hydrochloride]	5.3 µM	inhibition of IGF1-induced IGF1R auto-phosphorylation	0.46 µM	
CN1CCN(c2ccc(C(=O)Nc3n[nH]c4c3CN(S(=O)(=O)c3cc(F)cc(F)c3)C4(C)C)c(NC(=O)[C@@H]3CCCO3)c2)CC1 [Compound 1, (S)-Tetrahydro-furan-2-carboxylic acid [2-[5-(3,5-difluoro-benzenesulfonyl)-6,6-dimethyl-1,4,5,6-tetrahydro-pyrrolo[3,4-c]pyrazol-3-ylcarbamoyl]-5-(4-methyl-piperazin-1-yl)-phenyl]-amide]	0.74 µM	inhibition of IGF1-induced IGF1R auto-phosphorylation	0.17 µM	
CN1CCN(c2ccc(C(=O)Nc3n[nH]c4c3CN(S(=O)(=O)c3cc(F)cc(F)c3)C4(C)C)c(NC(=O)c3cc[nH]c3)c2)CC1 [Compound 11, 1H-pyrrole-3-carboxylic acid [2-[5-(3,5-difluoro-benzenesulfonyl)-6,6-dimethyl-1,4,5,6-tetrahydro-pyrrolo[3,4-c]pyrazol-3-ylcarbamoyl]-5-(4-methyl-piperazin-1-yl)-phenyl]-amide]	0.3 µM	inhibition of IGF1-induced IGF1R auto-phosphorylation		0.09 µM
